Experiment: In vitro MRI relaxivity of gold/Gd nanoparticles and clinical contrast agents
From the text: In vitro MRI of Gadolinium Nanoparticles and Polymer Modified Gadolinium Nanoparticles. In order to provide information about the clinical imaging viability of the polymer modified gold/Gd nanoparticles as a positive contrast agent, in vitro MRI was employed to determine relaxation properties of the unmodified and polymer modified gold/Gd nanoparticles. Table 1 compares the MRI longitudinal and transverse relaxivities, r1 and r2, respectively, of PNIPAM-modified gold/Gd nanoparticles and gold/Gd unmodified nanoparticles to the clinically employed contrasts agents, gadopentetate dimeglumine (Magnevist®) and gadobenate dimeglumine (Multihance®). […] By taking advantage of these properties, novel theragnostic polymer-modified gold/Gd nanoparticles could be produced and exploited as contrast agents for conventional T1 MR imaging.

## CNC[C@H](O)[C@@H](O)[C@H](O)[C@H](O)CO.CNC[C@H](O)[C@@H](O)[C@H](O)[C@H](O)CO.O=C([O-])CN(CCN(CC(=O)[O-])CC(=O)O)CCN(CC(=O)[O-])CC(=O)O.[Gd+3] [Magnevist ®, gadopentetate dimeglumine]
  r1 (MRI longitudinal relaxivity): 6.95 mM⁻¹ s⁻¹

## CNC[C@H](O)[C@@H](O)[C@H](O)[C@H](O)CO.CNC[C@H](O)[C@@H](O)[C@H](O)[C@H](O)CO.O=C([O-])CN(CCN(CC(=O)[O-])CC(=O)O)CCN(CC(=O)O)C(COCc1ccccc1)C(=O)[O-].[Gd+3] (centres unmarked) [Multihance ®, gadobenate dimeglumine]
  r1 (MRI longitudinal relaxivity): 17.7 mM⁻¹ s⁻¹
